What was measured:
Assay type in all cases: cell-based, Pseudomonas aeruginosa
[1] = test system: WT P. aeruginosa PAO1; assay: Checkerboard combination study / MIC; conditions: for MIC of antibiotic + Compound 2 in PAO1 / fold change of MIC + Compound 2 in PAO1: + compound 2 ≤8.7 μM; for MIC: Pseudomonas aeruginosa, PAO1, 18 h, WT PAO1 (Table 2), read-out: MIC alone; for MIC / MIC of antibiotic alone in PAO1: antibiotic alone; for FICI in the presence of ≤10 μM of 1: antibiotic + compound 1; for FICI in the presence of ≤10 μM of 1 / MIC of Antibiotics in the presence of ≤10 μM of 1 / FICI in the presence of ≤10 μM of 2 / MIC of Antibiotics in the presence of ≤10 μM of 2 / FICI in the presence of ≤10 μM of 3 / MIC of Antibiotics in the presence of ≤10 μM of 3: WT PAO1; for MIC of Antibiotics in the presence of ≤10 μM of 1: antibiotic + compound 1 ≤10 μM; for FICI in the presence of ≤10 μM of 2: antibiotic + compound 2; for MIC of Antibiotics in the presence of ≤10 μM of 2: antibiotic + compound 2 ≤10 μM; for FICI in the presence of ≤10 μM of 3: antibiotic + compound 3; for MIC of Antibiotics in the presence of ≤10 μM of 3: antibiotic + compound 3 ≤10 μM; for MIC of antibiotic alone in PAO1: PAO1 wild-type (Table 4)
[2] = test system: PA 100036; assay: Checkerboard combination study / MIC; conditions: for MICCombination (antibiotic): MIC of antibiotic combined with compound 2; for FICI: antibiotic + compound 2; for MICAntibiotic: antibiotic alone; for FICAntibiotic: with compound 2
[3] = test system: PA 101885; assay: Checkerboard combination study / MIC; conditions: for MICCombination (antibiotic): MIC of antibiotic combined with compound 2; for FICI: antibiotic + compound 2; for MICAntibiotic: antibiotic alone; for FICAntibiotic: with compound 2
[4] = test system: PA 259; assay: Checkerboard combination study / MIC; conditions: for MICAntibiotic: antibiotic alone
[5] = test system: PA 260; assay: Checkerboard combination study / MIC; conditions: for MICCombination (antibiotic): MIC of antibiotic combined with compound 2; for FICI: antibiotic + compound 2; for MICAntibiotic: antibiotic alone; for FICAntibiotic: with compound 2
[6] = test system: PA 262; assay: Checkerboard combination study / MIC; conditions: for MICCombination (antibiotic): MIC of antibiotic combined with compound 2; for FICI: antibiotic + compound 2; for MICAntibiotic: antibiotic alone; for FICAntibiotic: with compound 2
[7] = test system: PA 264; assay: Checkerboard combination study / MIC; conditions: for MICCombination (antibiotic): MIC of antibiotic combined with compound 2; for FICI: antibiotic + compound 2; for MICAntibiotic: antibiotic alone; for FICAntibiotic: with compound 2
[8] = test system: PA 91433; assay: Checkerboard combination study / MIC; conditions: PA 91433
[9] = test system: PA 101243; assay: Checkerboard combination study / MIC; conditions: PA 101243; for MICCombination (antibiotic): MIC of antibiotic combined with compound 2; for FICI: antibiotic + compound 2; for MICAntibiotic: antibiotic alone; for FICAntibiotic: with compound 2
[10] = test system: PA 114228; assay: Checkerboard combination study / MIC; conditions: for MICCombination (antibiotic): MIC of antibiotic combined with compound 2; for FICI: antibiotic + compound 2; for MICAntibiotic: antibiotic alone; for FICAntibiotic: with compound 2
[11] = test system: PAO200; conditions: for MIC of antibiotic + Compound 2 in PAO200 / fold change of MIC + Compound 2 in PAO200: + compound 2 ≤8.7 μM; for MIC of antibiotic alone in PAO200: PAO200 efflux-deficient
Text: (§1) PAO200 is a tnexA-rnexB-oprM deletion strain while PAO750 lacks five important RND pumps (McxAB-OprM, MexCD-OprJ, MexEF-OprN, Mex JK, and MexXY) and the outer membrane protein OpmH (46, 47). Some of these pumps are homologues of broad substrate specificities that extrude different classes of antimicrobial agents and confer resistance on P. aeruginosa (48).
(§2) Antimicrobial Susceptibility Assay. The in vitro antimicrobial activity of all compounds/antibiotics against a panel of bacteria was evaluated by microbroth dilution method in accordance with the Clinical and Laboratory Standards Institute (CLSI) guidelines. Overnight grown bacterial cultures were diluted in saline to achieve a 0.5 McFarland turbidity, followed by 1:50 dilution in Mueller-Hinton broth (MHB) for inoculation to a final concentration of approximately 5×10^5CFU/mL. The antimicrobial agents were 2-fold serially diluted in MHB in a 96-well plate and incubated at 37° C. with equal volumes of inoculum for 18 h. The lowest concentration that prevented the visible growth of bacteria was defined as the MIC for each antimicrobial agent. The broth with or without bacterial cells was used as positive or negative control, respectively.
(§3) Checkerboard Assay. Combination studies with different antibiotics were performed in 96-well plates as previously described (22). Briefly, the antibiotic of interest was serially diluted in MHB along the abscissa while the adjuvant (newly synthesized conjugates) was serially diluted in MHB along the ordinate. This creates a 10×7 matrix wherein each well consists of a combination of different antibiotic and adjuvant concentrations. Overnight grown bacterial cultures were diluted in saline to achieve a 0.5 McFarland turbidity, followed by 1:50 dilution in Mueller-Hinton broth (MHB) for inoculation to a final concentration of approximately 5×10^5CFU/mL. Equal volume of this bacterial culture was then added to each well and incubated at 37° C. for 18 h. After incubation, the plates were read on EMax® Plus microplate reader (Molecular Devices, Sunnyvale, Calif., USA) at 590 nm. MIC was recorded as wells with the lowest concentration of drugs with no bacterial growth. The fractional inhibitory concentration (FIC) for each antibiotic was calculated by dividing the MIC of the antibiotic in the presence of adjuvant by the MIC of the antibiotic alone. Similarly, the FIC of adjuvant was calculated by dividing the MIC of the adjuvant in the presence of antibiotic by the MIC of the adjuvant alone. FIC index is the sum of both FICs. FIC indices of <0.5 were deemed synergistic; 0.5-4, no interaction; and >4, antagonistic.

[12] = test system: PAO750; conditions: for MIC of antibiotic + Compound 2 in PAO750 / fold change of MIC + Compound 2 in PAO750: + compound 2 ≤8.7 μM; for MIC of antibiotic alone in PAO750: PAO750 efflux-deficient
Text: as §1, §2, §3

[13] = test system: MDR/XDR P. aeruginosa clinical isolates; assay: MIC and checkerboard, panel of clinical isolates; conditions: antibiotic + compound 2 (8.7 μM); resistant P. aeruginosa isolates
[14] = MIC of antibiotic combined with compound 2

How did the “MIC of antibiotic + Compound 2 in PAO1” value [1] turn out when `C[C@@H](O)[C@H]1C(=O)N2C(C(=O)O)=C(S[C@@H]3CN[C@H](CNS(N)(=O)=O)C3)[C@H](C)[C@H]12` [Doripenem] was run?
Its value is 0.5 µg/mL.

What about the “fold change of MIC + Compound 2 in PAO1” value [1] of the same molecule?
The value was 2.

And the MIC [1]?
The MIC was 1 µg/mL.

What about the “FICI in the presence of ≤10 μM of 1” value [1] of the same molecule?
Its value is 0.51.

What about the “MIC of Antibiotics in the presence of ≤10 μM of 1” value [1] of the same molecule?
The value was 0.5 µg/mL.

And the “FICI in the presence of ≤10 μM of 2” value [1]?
The value was 0.50.

What about the “MIC of Antibiotics in the presence of ≤10 μM of 2” value [1] of the same molecule?
The value was 0.5 µg/mL.

What about the “FICI in the presence of ≤10 μM of 3” value [1] of the same molecule?
Its value is 0.50.

And the “MIC of Antibiotics in the presence of ≤10 μM of 3” value [1]?
Its value is 0.5 µg/mL.

What about the “MIC of antibiotic alone in PAO1” value [1] of the same molecule?
Its value is 1 µg/mL.

And the “MICCombination (antibiotic)” value [2]?
The value was 8 µg/mL.

What about the FICI [2] of the same molecule?
Its FICI is <0.56.

What about the MICAntibiotic [2] of the same molecule?
The MICAntibiotic was 16 µg/mL.

What about the FICAntibiotic [2] of the same molecule?
Its FICAntibiotic is 0.500.

And the “MICCombination (antibiotic)” value [3]?
The value was 1 µg/mL.

And the FICI [3]?
Its FICI is <0.27.

What about the MICAntibiotic [3] of the same molecule?
Its MICAntibiotic is 4 µg/mL.

What about the FICAntibiotic [3] of the same molecule?
Its FICAntibiotic is 0.250.

What about the MICAntibiotic [4] of the same molecule?
Its MICAntibiotic is >1024 µg/mL.

What about the “MICCombination (antibiotic)” value [5] of the same molecule?
Its value is 8 µg/mL.

What about the FICI [5] of the same molecule?
Its FICI is <0.53.

And the MICAntibiotic [5]?
Its MICAntibiotic is 16 µg/mL.

And the FICAntibiotic [5]?
The FICAntibiotic was 0.500.

What about the “MICCombination (antibiotic)” value [6] of the same molecule?
Its value is 4 µg/mL.

What about the FICI [6] of the same molecule?
Its FICI is <0.31.

And the MICAntibiotic [6]?
Its MICAntibiotic is 16 µg/mL.

And the FICAntibiotic [6]?
Its FICAntibiotic is 0.250.

And the “MICCombination (antibiotic)” value [7]?
The value was 8 µg/mL.

What about the FICI [7] of the same molecule?
Its FICI is <0.51.

And the MICAntibiotic [7]?
Its MICAntibiotic is 16 µg/mL.

What about the FICAntibiotic [7] of the same molecule?
Its FICAntibiotic is 0.500.

What about the “MICCombination (antibiotic)” value [8, 14] of the same molecule?
Its value is 1 µg/mL.

And the FICI ([8]; antibiotic + compound 2)?
Its FICI is <0.09.

What about the MICAntibiotic ([8]; antibiotic alone) of the same molecule?
Its MICAntibiotic is 16 µg/mL.

And the FICAntibiotic ([8]; with compound 2)?
Its FICAntibiotic is 0.063.

And the “MICCombination (antibiotic)” value [9]?
The value was 8 µg/mL.

What about the FICI [9] of the same molecule?
The FICI was <0.50.

What about the MICAntibiotic [9] of the same molecule?
The MICAntibiotic was 16 µg/mL.

What about the FICAntibiotic [9] of the same molecule?
Its FICAntibiotic is 0.500.

What about the “MICCombination (antibiotic)” value [10] of the same molecule?
The value was 1 µg/mL.

And the FICI [10]?
The FICI was <0.14.

What about the MICAntibiotic [10] of the same molecule?
Its MICAntibiotic is 8 µg/mL.

And the FICAntibiotic [10]?
The FICAntibiotic was 0.125.

And the “MIC of antibiotic + Compound 2 in PAO200” value [11]?
Its value is 0.25 µg/mL.

And the “fold change of MIC + Compound 2 in PAO200” value [11]?
The value was 4.

And the “MIC of antibiotic alone in PAO200” value [11]?
The value was 1 µg/mL.

And the “MIC of antibiotic + Compound 2 in PAO750” value [12]?
Its value is 0.25 µg/mL.

And the “fold change of MIC + Compound 2 in PAO750” value [12]?
The value was 4.

And the “MIC of antibiotic alone in PAO750” value [12]?
The value was 1 µg/mL.

And the “resistant isolates reaching CLSI clinical breakpoint” value [13]?
Its value is “three out of nine”.

What does the source list for `CCN1CCN(C(=O)N[C@@H](C(=O)N[C@@H]2C(=O)N3[C@@H]2SC(C)(C)[C@@H]3C(=O)O)c2ccccc2)C(=O)C1=O` [Piperacillin]?
MIC of antibiotic + Compound 2 in PAO1 [1]: 2 µg/mL; fold change of MIC + Compound 2 in PAO1 [1]: 4; MIC [1]: 8 µg/mL; FICI in the presence of ≤10 μM of 1 [1]: 0.26; MIC of Antibiotics in the presence of ≤10 μM of 1 [1]: 2 µg/mL; FICI in the presence of ≤10 μM of 2 [1]: 0.25; MIC of Antibiotics in the presence of ≤10 μM of 2 [1]: 2 µg/mL; FICI in the presence of ≤10 μM of 3 [1]: 0.25; MIC of Antibiotics in the presence of ≤10 μM of 3 [1]: 2 µg/mL; MIC of antibiotic alone in PAO1 [1]: 8 µg/mL; MICCombination (antibiotic) [2]: 64 µg/mL; FICI [2]: <1.06; MICAntibiotic [2]: 64 µg/mL; FICAntibiotic [2]: 1.000; MICCombination (antibiotic) [3]: 4 µg/mL; FICI [3]: <0.31; MICAntibiotic [3]: 16 µg/mL; FICAntibiotic [3]: 0.250; MICCombination (antibiotic) [4, 14]: 256 µg/mL; FICI ([4]; antibiotic + compound 2): <0.50; MICAntibiotic [4]: 512 µg/mL; FICAntibiotic ([4]; with compound 2): 0.500; MICCombination (antibiotic) [5]: 512 µg/mL; FICI [5]: <1.06; MICAntibiotic [5]: 512 µg/mL; FICAntibiotic [5]: 1.000; MICCombination (antibiotic) [6]: 512 µg/mL; FICI [6]: <0.52; MICAntibiotic [6]: 1024 µg/mL; FICAntibiotic [6]: 0.500; MICCombination (antibiotic) [7]: 1024 µg/mL; FICI [7]: <0.52; MICAntibiotic [7]: 2048 µg/mL; FICAntibiotic [7]: 0.500; MICCombination (antibiotic) [9]: 128 µg/mL; FICI [9]: <1.06; MICAntibiotic [9]: 128 µg/mL; FICAntibiotic [9]: 1.000; MICCombination (antibiotic) [10]: 8 µg/mL; FICI [10]: <0.50; MICAntibiotic [10]: 16 µg/mL; FICAntibiotic [10]: 0.500; MIC of antibiotic + Compound 2 in PAO200 [11]: 1 (1) μg/ml; fold change of MIC + Compound 2 in PAO200 [11]: 1 (1); MIC of antibiotic alone in PAO200 [11]: 1 µg/mL; MIC of antibiotic + Compound 2 in PAO750 [12]: 0.5 µg/mL; fold change of MIC + Compound 2 in PAO750 [12]: 4; MIC of antibiotic alone in PAO750 [12]: 2 µg/mL; resistant isolates reaching CLSI clinical breakpoint [13]: zero out of six

Reference: patent US20210290648A1, “Potentiation of B-Lactam Antibiotics and B-Lactam/B-Lactamase Inhibitor Combinations Against Multidrug and Extensively Drug-Resistant Pseudomonas Aeruginosa Using Non-Ribosomal Tobramycin-Cyclam Conjugates” (University of Manitoba, priority 2018, published 2021)
